Where two headings read alike, the source gives them in different places.
Test system: Adjuvant-Induced Arthritis
Assay: Adjuvant-induced arthritis in the rat (Mycobacterium butyricum, subplantar; inhibition of hindpaw edema, primary and secondary lesions)
Format: in vivo, rat (adult male Wistar-Lewis)
Details: for % Inhibition of Lesions, Secondary (mean ± SE): contralateral non-injected paw, day 16; for % Inhibition of Lesions, Primary (mean ± SE): injected paw, day 4; for ED50: Rattus norvegicus
Experimental: Adjuvant arthritis was induced in adult male Wistar-Lewis rats weighing 250-270 grams each (Charles River Breeding Laboratories, Kingston, N.Y.) by a single subplantar injection of 1 mg of Mycobacterium butyricum (Difco Laboratories, Lot #0640-33) suspended in 0.1 ml mineral oil as described by Walz et al. (Proc. Soc. Exptl. Biol. Med., 136: 907-910, 1971). Seven rats were used in each group. Orally administered drugs were dissolved in water and dilute sodium hydroxide was added as necessary to ensure solution; control groups received only water. After neutralization of the solutions to pH 7.0, a volume of 10 ml/kg body weight was given by intubation with a blunt end, 18-gauge needle. Doses of each drug were given daily starting 1 day before the injection of adjuvant and continuing until 16 days after the induction of the arthritic lesion.
The initial hindpaw volumes (Vi) were measured on the day of adjuvant injection and the resultant swelling was determined on the injected paw (Vf - Vi) on the 4th day following the adjuvant injection. This was considered to be the primary response or lesion. The swelling (Vf - Vi) measured 16 days after adjuvant injection on the contralateral, non-injected hindpaw constituted the secondary response or lesion. The rats were weighed at the start of the experiments as well as 4 and 16 days after the induction of the disease. Percent inhibition of edema was calculated according to the following formula: [formula]

Structure (SMILES)	effect on the course of adjuvant arthritis in rats (in words) (compound alone)	% Inhibition of Lesions, Secondary (mean ± SE) (oral 1.0 mg/kg daily)	% Inhibition of Lesions, Primary (mean ± SE) (oral 1.0 mg/kg daily)	% Inhibition of Lesions, Secondary (mean ± SE) (oral 3.3 mg/kg daily)	% Inhibition of Lesions, Primary (mean ± SE) (oral 3.3 mg/kg daily)	% Inhibition of Lesions, Secondary (mean ± SE) (oral 10.0 mg/kg daily)	% Inhibition of Lesions, Primary (mean ± SE) (oral 10.0 mg/kg daily)	ED50 (in words) (oral, linear regression of Table I data, secondary lesions)	activity against primary lesions (in words) (oral, primary lesions)	activity against secondary lesions (in words) (oral, secondary lesions)	ED50 (oral, linear regression of Table I data, primary lesions, read-out: ED50 against primary lesions) [mg/kg]	ED50 (oral, linear regression of Table I data, secondary lesions, read-out: ED50 against secondary lesions) [mg/kg]	% Inhibition of Lesions, Secondary (mean ± SE) (oral 0.10 mg/kg daily)	% Inhibition of Lesions, Primary (mean ± SE) (oral 0.10 mg/kg daily)	% Inhibition of Lesions, Secondary (mean ± SE) (oral 0.33 mg/kg daily)	% Inhibition of Lesions, Primary (mean ± SE) (oral 0.33 mg/kg daily)
Cc1nc(-c2csc(NC(=N)N)n2)c[nH]1.Cl.Cl [Compound A, 2-Guanidino-4-(2-methyl-4-imidazolyl)thiazole Dihydrochloride]	beneficial effect	3 (3) %	0 (6) %	28 (4) %	0 (3) %	27 (3) %	2 (2) %	no reliable ED50 could be extrapolated	no significant activity	significant activity						
CN1C(C(=O)Nc2ccccn2)=C(O)c2ccccc2S1(=O)=O [Piroxicam, reference compound]		64 (3) %	45 (7) %								2.6	0.45	26 (2) %	29 (4) %	43 (4) %	33 (8) %

From patent publication US4591595A, “2-guanidino-4-(2-methyl-4-imidazolyl)thiazoles in the treatment of rheumatoid arthritis” (Pfizer Inc., priority 1985, dated 1986)
